{"source": "patent EP0970067B1", "about": "“(METHYLSULFONYL)PHENYL-2-(5H)-FURANONES WITH OXYGEN LINK AS COX-2 INHIBITORS” (Merck Frosst Canada & Co., priority 1997, dated 1998)", "key": {"COX-2 [1]": {"molecular_target": "T1, COX-2 (Homo sapiens, UniProt P35354)", "T1 sequence (P35354 18-604)": "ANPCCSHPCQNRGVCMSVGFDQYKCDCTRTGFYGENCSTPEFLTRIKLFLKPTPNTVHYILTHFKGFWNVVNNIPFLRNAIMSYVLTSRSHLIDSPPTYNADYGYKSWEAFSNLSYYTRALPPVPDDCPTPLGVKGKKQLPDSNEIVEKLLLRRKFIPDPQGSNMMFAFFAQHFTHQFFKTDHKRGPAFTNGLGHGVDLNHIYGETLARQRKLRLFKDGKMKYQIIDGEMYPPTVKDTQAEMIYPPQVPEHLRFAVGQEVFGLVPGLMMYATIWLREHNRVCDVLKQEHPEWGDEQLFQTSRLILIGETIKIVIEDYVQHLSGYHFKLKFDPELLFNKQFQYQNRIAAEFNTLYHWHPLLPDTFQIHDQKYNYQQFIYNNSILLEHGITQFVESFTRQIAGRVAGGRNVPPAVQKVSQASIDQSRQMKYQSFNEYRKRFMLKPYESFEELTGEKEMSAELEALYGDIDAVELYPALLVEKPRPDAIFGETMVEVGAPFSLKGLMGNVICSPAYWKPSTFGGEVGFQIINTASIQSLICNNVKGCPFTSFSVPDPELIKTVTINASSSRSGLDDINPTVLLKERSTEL", "assay": "Human whole blood assay, COX-2 (LPS-induced PGE2 production)", "format": "cell-based", "design": "endogenous in cells; host or cells: fresh heparinized human whole blood from volunteers, stimulated with LPS", "conditions": "LPS 100 µg/ml, 24 hours at 37°C, read-out: COX-2 (IC50) HWB", "excerpt": "As well, platelets in whole blood contain a large amount of the COX-1 enzyme. Immediately following blood clotting, platelets are activated through a thrombin-mediated mechanism. This reaction results in the production of thromboxane B2 (TxB2) via activation of COX-1. Thus, the effect of test compounds on TxB2 levels following blood clotting can be examined and used as an index for COX-1 activity. Therefore, the degree of selectivity by the test compound can be determined by measuring the levels of PGE2 after LPS induction (COX-2) and TxB2 following blood clotting (COX-1) in the same assay.\nFresh blood is collected in heparinized tubes by venipuncture from both male and female volunteers. The subjects have no apparent inflammatory conditions and have not taken any NSAIDs for at least 7 days prior to blood collection. Plasma is immediately obtained from a 2mL blood aliquot to use as blank (basal levels of PGE2). The remaining blood is incubated with LPS (100 µg/ml final concentration, Sigma Chem, #L-2630 from E. coli; diluted in 0.1% BSA (Phosphate buffered saline) for 5 minutes at room temperature. Five hundred µL aliquots of blood are incubated with either 2µL of vehicle (DMSO) or 2µL of a test compound at final concentrations varying from 10nM to 30µM for 24 hours at 37°C. At the end of the incubation, the blood is centrifuged at 12,000 x g for 5 minutes to obtain plasma. A 100µL aliquot of plasma is mixed with 400µL of methanol for protein precipitation. The supernatant is obtained and is assayed for PGE2 using a radioimmunoassay kit (Amersham, RPA#530) after conversion of PGE2 to its methyl oximate derivative according to the manufacturer's procedure."}, "COX-2 [2]": {"molecular_target": "T1, COX-2", "assay": "Whole cell COX-2 assay using CHO transfected cell line (PGE2 radioimmunoassay)", "format": "cell-based", "design": "expressed in transfected cells; host or cells: CHO [hCOX-2], stably transfected with pCDNAIII", "conditions": "CHO [hCOX-2] cells; PGE2 synthesis in response to arachidonic acid", "protocol": "Compounds are tested as inhibitors of cyclooxygenase activity in whole cell cyclooxygenase assays. These assays measure prostaglandin E2 synthesis in response to arachidonic acid, using a radioimmunoassay. Cells used for these assays are chinese hamster ovary (CHO) cell lines which have been stably transfected with an eukaryotic expression vector […] containing either the human Cox-1 or Cox-2 CDNA's. U937 cell microsomes are also used to measure Cox-1 activity.\nChinese hamster ovary (CHO) cell lines which have been stably transfected with an eukaryotic expression vector pCDNAIII containing either the human COX-1 or COX-2 cDNA's are used for the assay. These cell lines are referred to as CHO [hCOX-1] and CHO [hCOX-2], respectively. For cyclooxygenase assays, CHO[hCOX-1] cells from suspension cultures and CHO[hCOX-2] cells prepared by trypsinization of adherent cultures are harvested by centrifugation (300 x g, 10 min) and washed once in HBSS containing 15 mM HEPES, pH 7.4, and resuspended in HBSS, 15 mM HEPES, pH 7.4, at a cell concentration of 1.5 x 10^6 cells/ml. Drugs to be tested are dissolved in DMSO to 66.7-fold the highest test drug concentration. […] Cells (0.3 x 10^6 cells in 200 µl) are preincubated with 3 µl of the test drug or DMSO vehicle for 15 min at 37°C. Working solutions of peroxide-free AA (5.5 µM and 110 µM AA for the CHO [hCOX-1] and CHO [COX-2] assays, respectively) are prepared by a 10-fold dilution of a concentrated AA solution in ethanol into HBSS containing 15 mM HEPES, pH 7.4.\nIn the assay, inhibition is determined by measuring the amount of prostaglandin E2 (PGE2) synthesized in the presence of arachidonic acid, cyclooxygenase-1 or cyclooxygenase-2 and a putative inhibitor."}, "Rat Paw Edema": {"test_system": "Rat Paw Edema", "assay": "Rat paw edema assay (carrageenan-induced)", "format": "in vivo, Male Sprague-Dawley rats", "conditions": "po, 1 hr before subplantar carrageenan, paw volume measured three hr later", "protocol": "Male Sprague-Dawley rats (150-200 g) are fasted overnight and are given, po, either vehicle (1% methocel or 5% Tween 80) or a test compound. One hr later, a line is drawn using a permanent marker at the level above the ankle in one hind paw to define the area of the paw to be monitored. The paw volume (V0) is measured using a plethysmometer (Ugo-Basile, Italy) based on the principle of water displacement. The animals are then injected subplantarly with […] of 1% carrageenan solution in saline (FMC Corp, Maine) into the paw using an insulin syringe with a 25-gauge needle (i.e. […] carrageenan per paw). Three hr later, the paw volume (V3) is measured and the increases in paw volume (V3 - VO) are calculated. The animals are sacrificed by CO2 asphyxiation and the absence or presence of stomach lesions scored. Data is compared with the vehicle-control values and percent inhibition calculated. All treatment groups are coded to eliminate observer bias."}}, "data": [{"smiles": "C=CC(C)OC1=C(c2ccc(S(C)(=O)=O)cc2)C(C)(C)OC1=O", "note": "(stereo not drawn) [Example 1, 5,5-Dimethyl-3-((1-methylallyl)oxy)-4-(4-methylsulfonylphenyl)-5H-furan-2-one]", "values": [{"measurement": "IC50", "setting": "COX-2 [1]", "result": 1900, "unit": "nM"}, {"measurement": "IC50", "setting": "COX-2 [2]", "result": 50, "unit": "nM"}]}, {"smiles": "CC1(C)OC(=O)C(OC(C(F)(F)F)C(F)(F)F)=C1c1ccc(S(C)(=O)=O)cc1", "note": "[Example 2, 5,5-Dimethyl-3-(1,1,1,3,3,3-hexafluoropropoxy)-4-(4-methylsulfonyl-phenyl)-5H-furan-2-one]", "values": [{"measurement": "ED50", "setting": "Rat Paw Edema", "result": 1, "unit": "mg/kg"}]}, {"smiles": "C#CC(C)OC1=C(c2ccc(S(C)(=O)=O)cc2)C(C)(C)OC1=O", "note": "(stereo not drawn) [Example 3, 5,5-Dimethyl-3-((1-methyl-2-propynyl)oxy)-4-(4-methylsulfonylphenyl)-5H-furan-2-one]", "values": [{"measurement": "ED50", "setting": "Rat Paw Edema", "result": 2.4, "unit": "mg/kg"}]}, {"smiles": "C=CC(C)(O)COC1=C(c2ccc(S(C)(=O)=O)cc2)C(C)(C)OC1=O", "note": "(stereo not drawn) [Example 5, 3-((2-hydroxy-2-methyl-3-butenyl)oxy)-5,5-dimethyl-4-(4-methyl-sulfonyl)phenyl-5H-furan-2-one]", "values": [{"measurement": "IC50", "setting": "COX-2 [1]", "result": 600, "unit": "nM"}, {"measurement": "IC50", "setting": "COX-2 [2]", "result": 80, "unit": "nM"}]}, {"smiles": "C=C(C)OC1=C(c2ccc(S(C)(=O)=O)cc2)C(C)(C)OC1=O", "note": "[Example 7, 3-(Isopropenyloxy)-5,5-dimethyl-4-(4-methylsulfonylphenyl)-5H-furan-2-one]", "values": [{"measurement": "IC50", "setting": "COX-2 [1]", "result": 2100, "unit": "nM"}, {"measurement": "IC50", "setting": "COX-2 [2]", "result": 70, "unit": "nM"}]}, {"smiles": "C[C@@H](CO)COC1=C(c2ccc(S(C)(=O)=O)cc2)C(C)(C)OC1=O", "note": "[Example 8, 3-(((2S)-3-hydroxy-2-methylpropyl)oxy)-5,5-dimethyl-4(4-methyl-sulfonylphenyl)-5H-furan-2-one]", "values": [{"measurement": "ED50", "setting": "Rat Paw Edema", "result": 3.1, "unit": "mg/kg"}, {"measurement": "IC50", "setting": "COX-2 [1]", "result": 500, "unit": "nM"}, {"measurement": "IC50", "setting": "COX-2 [2]", "result": 500, "unit": "nM"}]}, {"smiles": "C[C@H](CO)COC1=C(c2ccc(S(C)(=O)=O)cc2)C(C)(C)OC1=O", "note": "[Example 9, 3-(((2R)-3-hydroxy-2-methylpropyl)oxy)-5,5-dimethyl-4-(4-methylsulfonylphenyl)-5H-furan-2-one]", "values": [{"measurement": "IC50", "setting": "COX-2 [1]", "result": "< 400", "unit": "nM"}, {"measurement": "IC50", "setting": "COX-2 [2]", "result": 400, "unit": "nM"}]}, {"smiles": "CC(CO)OC1=C(c2ccc(S(C)(=O)=O)cc2)C(C)(C)OC1=O", "note": "(stereo not drawn) [Example 12, 3-(2-Hydroxy-1-methylethoxy)-5,5-dimethyl-4-(4-methylsulfonyl-phenyl)-5H-furan-2-one]", "values": [{"measurement": "IC50", "setting": "COX-2 [1]", "result": 4700, "unit": "nM"}, {"measurement": "IC50", "setting": "COX-2 [2]", "result": 500, "unit": "nM"}]}, {"smiles": "C#CCOC1=C(c2ccc(S(C)(=O)=O)cc2)C(C)(C)OC1=O", "note": "[Example 14, 5,5-Dimethyl-4-(4-methylsulfonylphenyl)3-(2-propynyloxy)-5H-furan-2-one]", "values": [{"measurement": "IC50", "setting": "COX-2 [1]", "result": 5100, "unit": "nM"}, {"measurement": "IC50", "setting": "COX-2 [2]", "result": 500, "unit": "nM"}]}, {"smiles": "C=CCOC1=C(c2ccc(S(C)(=O)=O)cc2)C(C)(C)OC1=O", "note": "[Example 15, 3-(Allyloxy)-5,5-dimethyl-4-(4-methylsulfonylphenyl)-5H-furan-2-one]", "values": [{"measurement": "IC50", "setting": "COX-2 [1]", "result": 1800, "unit": "nM"}, {"measurement": "IC50", "setting": "COX-2 [2]", "result": 200, "unit": "nM"}]}, {"smiles": "CC1(C)OC(=O)C(OC2CCC3(CC2)OCCO3)=C1c1ccc(S(C)(=O)=O)cc1", "note": "[Example 16, 3-(1,4-dioxaspiro[4.5]dec-8-yloxy)-5,5-dimethyl-4-(4-methylsulfonyl-phenyl)-5H-furan-2-one]", "values": [{"measurement": "IC50", "setting": "COX-2 [2]", "result": 400, "unit": "nM"}]}, {"smiles": "CC1(C)OC(=O)C(OC2CCC(F)(F)CC2)=C1c1ccc(S(C)(=O)=O)cc1", "note": "[Example 17]", "values": [{"measurement": "ED50", "setting": "Rat Paw Edema", "result": 0.9, "unit": "mg/kg"}, {"measurement": "IC50", "setting": "COX-2 [1]", "result": 600, "unit": "nM"}, {"measurement": "IC50", "setting": "COX-2 [2]", "result": 300, "unit": "nM"}]}, {"smiles": "C=C(C)COC1=C(c2ccc(S(C)(=O)=O)cc2)C(C)(C)OC1=O", "note": "[Example 18, 5,5-dimethyl-3-(2-methylallyloxy)-4-(4-methylsulfonylphenyl)-5H-furan-2-one]", "values": [{"measurement": "IC50", "setting": "COX-2 [1]", "result": "< 400", "unit": "nM"}]}, {"smiles": "CC1(COC2=C(c3ccc(S(C)(=O)=O)cc3)C(C)(C)OC2=O)CC1", "note": "[Example 19, 5,5-Dimethyl-3-[(1-methylcyclopropyl)methoxy]-4-(4-methylsulfonyl-phenyl)-5H-furan-2-one]", "values": [{"measurement": "IC50", "setting": "COX-2 [1]", "result": "< 400", "unit": "nM"}]}, {"smiles": "C=C(CF)COC1=C(c2ccc(S(C)(=O)=O)cc2)C(C)(C)OC1=O", "note": "[Example 20, 3-{[2-(fluoromethyl)allyl]oxy}-5,5-dimethyl-4-(4-methylsulfonyl-phenyl)-5H-furan-2-one]", "values": [{"measurement": "IC50", "setting": "COX-2 [1]", "result": 600, "unit": "nM"}, {"measurement": "IC50", "setting": "COX-2 [2]", "result": 200, "unit": "nM"}]}, {"smiles": "CC1(C)OC(=O)C(OCC2(CO)CC2)=C1c1ccc(S(C)(=O)=O)cc1", "note": "[Example 21, 3-{[1-(hydroxymethyl)cyclopropyl]methoxy}-5,5-dimethyl-4-(4-methylsulfonylphenyl)-2-5H-furan-2-one]", "values": [{"measurement": "IC50", "setting": "COX-2 [1]", "result": 900, "unit": "nM"}, {"measurement": "IC50", "setting": "COX-2 [2]", "result": 600, "unit": "nM"}]}, {"smiles": "CC1(C)OC(=O)C(OCC2(CF)CC2)=C1c1ccc(S(C)(=O)=O)cc1", "note": "[Example 23, 3-{[1-(fluoromethyl)cyclopropyl]methoxy}-5,5-dimethyl-4-(4-methylsulfonylphenyl)-5H-furan-2-one]", "values": [{"measurement": "ED50", "setting": "Rat Paw Edema", "result": 5.9, "unit": "mg/kg"}]}, {"smiles": "CC1(C)OC(=O)C(OC2CCCC2=O)=C1c1ccc(S(C)(=O)=O)cc1", "note": "(stereo not drawn) [Example 24, 3-((2-oxocyclopentyl)oxy)-5,5-dimethyl-4-(4-methylsulfonylphenyl)-5H-furan-2-one]", "values": [{"measurement": "IC50", "setting": "COX-2 [1]", "result": 800, "unit": "nM"}, {"measurement": "IC50", "setting": "COX-2 [2]", "result": 400, "unit": "nM"}]}, {"smiles": "CC1(C)OC(=O)C(OC2CCCC2(F)F)=C1c1ccc(S(C)(=O)=O)cc1", "note": "(stereo not drawn) [Example 25]", "values": [{"measurement": "IC50", "setting": "COX-2 [1]", "result": "< 400", "unit": "nM"}]}]}
